Results published in patent US20100197588A1, “USE OF A PEPTIDE AS A THERAPEUTIC AGENT” (priority 2007, published 2010).
Where no end group is shown, it is not given here.

Columns and labels:
[1] = system: HIV-1IIIB; test: HIV-1 antiviral assay in CEM-SS cells (MTS readout)
[2] = system: HCMV strain AD169; test: HCMV plaque formation assay in MRC-5 cells
[3] = system: hepatitis B virus (HBV) ayw strain; test: HBV experimental assay system, secreted HBV DNA by TaqMan PCR in HepG2-2.2.15 cells; format: cell-based; conditions: 10 micrograms per ml, six days
From the text: HepG2-2.2.15 is a stable cell line containing the hepatitis B virus (HBV) ayw strain genome (ATCC Cat. No. CRL-11997). Antiviral compounds blocking any late step of viral replication such as transcription, translation, pregenome encapsidation, reverse transcription, particle assembly and release can be identified and characterized using this cell line. In this assay, an active compound will reduce the production of secreted HBV from cells, measured by utilizing real time quantitative PCR (TaqMan) assay to directly and accurately measure HBV DNA copies.
HepG2-2.2.15 cells were plated in 96-well microtiter plates. After 16-24 hours the confluent monolayer of HepG2-2.2.15 cells was washed and the medium was replaced with complete medium containing test peptides—10 micrograms per ml—in duplicate. […] Six days following the initial administration of the peptides, the cell culture supernatants was collected, treated with pronase and DNAse and then used in a real-time quantitative TaqMan PCR assay. The PCR-amplified HBV DNA was detected in real-time by monitoring increases in fluorescence signals that result from the exonucleolytic degradation of a quenched fluorescence probe molecule that hybridizes to the amplified HBV DNA. […] Antiviral activity was calculated from the reduction in HBV DNA levels (% virus control). […]

[4] = system: Primary Human endothelial cells (HUVEC); test: Endothelial cell migration assay; conditions: 10 micrograms per ml, 22 hours
Description: Primary Human endothelial cells (HUVEC) were seeded in insert chambers with 3 micrometer pore size of multi-transwell plate for 6 hours at 37° C. in Endothelial Cell Basal Medium (EBM) supplemented with 0.1% bovine serum albumin. Thereafter, designated concentration of testing peptides—10 micrograms per ml—was added in duplicate wells. The endothelia were allowed to migrate for 22 hours at 37° C., then, migrated cells were fixed and stained with Hoechst 33342 dye. Images of 3 fields per insert were taken and the number of migrated cells per field were quantified using the ImageProPlus software. Data were analyzed for the average number of the migrated cells and standard deviation of six data points for each treatment condition. […] Statistic p values were computed using the Student's t-test.

[5] = system: HUVEC; test: Endothelial tube formation assay; conditions: 10 micrograms per ml, 20 hours, combination peptide 1:peptide 2 0.95 mole:1.05 mole
Description: The endothelial tube formation assay is based on the ability of endothelial cells to form three-dimensional capillary-like tubular structures when cultured on a gel of basement membrane extract. […] Pre-labeled HUVEC with Calcein AM were seeded in a 96-well culture plate coated with extracellular metrix (Chemicon international Cat. ECM625) and treated with test peptides—10 micrograms per ml—in full growth medium. Positive control was vehicle only. The endothelial cells were allowed to form tubes for 20 hours and were then examined under an inverted fluorescent microscope. Duplicate wells for each treatment were photographed and quantitatively analyzed for an average tubule length using image analysis software ImageProPlus. Raw data were expressed as average tubule lengths in pixels ±standard deviation. Statistic p values were computed using the Student's t-test.

[6] = system: Interleukin-2 (IL-2); test: Th1/Th2 cytokine profiling assay, IL-2; conditions: 10 micrograms per ml; Ovalbumin-restimulated Balb/c spleen cells, 72 hours
From the text: (§1) The Balb/c mice (originated in 1923, it is a popular strain and is used in many different research disciplines. Also classified as an inbred from the production of 20 or more successive brother-sister matings, the Balb/c mouse is albino and small in size) were immunized on Days 1, 15, and 29 with Ovalbumin (Ovalbumin is the main protein found in egg white, commonly used to stimulate an immunological reaction in test animals) in PBS (5 micrograms/injection). On day 50, spleens of the mice were harvested (3 weeks after last boost with Ovalbumin). […] Thereafter, additional Ovalbumin was added to the cells at 10 micrograms/ml for in vitro restimulation of the cells. 72 hours later, cell supernatants were harvested and assayed using the Becton Dickinson Mouse Th1/Th2 Cytokine CBA Kit. This kit can be used to measure Interleukin-2 (IL-2), Interleukin-4 (IL-4), Interleukin-5 (IL-5), Interferon-γ (IFN-γ), and Tumor Necrosis Factor-α (TNF-α) protein levels in a single sample.

[7] = system: Interleukin-4 (IL-4); test: Th1/Th2 cytokine profiling assay, IL-4; conditions: 10 micrograms per ml; Ovalbumin-restimulated Balb/c spleen cells, 72 hours
From the text: as §1

[8] = system: Interleukin-5 (IL-5); test: Th1/Th2 cytokine profiling assay, IL-5; conditions: 10 micrograms per ml; Ovalbumin-restimulated Balb/c spleen cells, 72 hours
From the text: as §1

[9] = system: Tumor Necrosis Factor-α (TNF-α); test: Th1/Th2 cytokine profiling assay, TNF-α; conditions: 10 micrograms per ml; Ovalbumin-restimulated Balb/c spleen cells, 72 hours
From the text: (§2) The Balb/c mice (originated in 1923, it is a popular strain and is used in many different research disciplines. Also classified as an inbred from the production of 20 or more successive brother-sister matings, the Balb/c mouse is albino and small in size) were immunized on Days 1, 15, and 29 with Ovalbumin (Ovalbumin is the main protein found in egg white, commonly used to stimulate an immunological reaction in test animals) in PBS (5 micrograms/injection). On day 50, spleens of the mice were harvested (3 weeks after last boost with Ovalbumin). […] Thereafter, additional Ovalbumin was added to the cells at 10 micrograms/ml for in vitro restimulation of the cells. 72 hours later, cell supernatants were harvested and assayed using the Becton Dickinson Mouse Th1/Th2 Cytokine CBA Kit. This kit can be used to measure Interleukin-2 (IL-2), Interleukin-4 (IL-4), Interleukin-5 (IL-5), Interferon-γ (IFN-γ), and Tumor Necrosis Factor-α (TNF-α) protein levels in a single sample. The kit performance has been optimized for analysis of physiologically relevant concentrations (μg/ml levels) of specific cytokine proteins in tissue culture supernatants and serum samples.

[10] = system: Interferon-γ (IFN-γ); test: Th1/Th2 cytokine profiling assay, IFN-γ; conditions: 10 micrograms per ml; Ovalbumin-restimulated Balb/c spleen cells, 72 hours
From the text: as §2

[11] = system: A549 cells; test: Apoptosis prevention assay (C2 ceramide, Annexin-5); conditions: 10 micrograms per ml, 30 min pretreatment, then C2 ceramide, combination 0.95 mole peptide 1 and 1.05 mole peptide 2
Description: Human A549 cells (carcinomic human alveolar basal epithelial cells) were utilized in the experiments employing the Annexin-5 apoptosis assay. […] A549 cells were pretreated for 30 min with test peptides—10 micrograms per ml—followed by the exposure to C2 ceramide.

[12] = system: Human Peripheral Blood Mononuclear Cells (PBMC), B cell proliferation; test: B cell proliferation assay (SAC plus Interleukin-2 stimulated PBMC, 3H-thymidine); conditions: 10 micrograms per ml, 3 days
Description: Human Peripheral Blood Mononuclear Cells (PBMC) were obtained from normal human donors. The B cell proliferation was induced by stimulation of the cells with the B cell mitogen Staphylococcus aureus Cowans I (SAC) plus Interleukin-2, either in the absence (positive proliferation control), or in the presence of test peptides—10 micrograms per ml—to examine their effects on the B cell response. 10^5/well PBMC were plated in 96-well microtiter plates and assayed in duplicate with the peptides. […] At the end of incubation time, the plates were harvested and the cells counted by liquid scintillation for the incorporation of ^3H-thymidine as a measure of B cell proliferation.

Compound | antiviral activity of positive control compounds (HIV-1) [1] | antiviral activity of positive control compound (HCMV) [2] | inhibition of HBV replication as compared to the virus control infection [3] | inhibition of the migration of endothelial cells ([4]; combination peptide 1:peptide 2 0.95 mole:1.05 mole) [%] | induction of the tube formation of human endothelial cells [5] [%] | IL-2 spleen cells (% of control) [6] | IL-4 spleen cells; TH2 response (% of control) [7] | IL-5 spleen cells; TH2 response (% of control) [8] | TNF-a spleen cells; TH1 response (% of control) [9] | IFNγ spleen cells; TH1 response (% of control) [10] | induction of the ceramide-induced apoptosis on human lung cells [11] | induction of the proliferation of specifically stimulated human B-cells [12] | induction of the migration of endothelial cells [4] [%]
CC(C)(C)NC(=O)[C@@H]1CN(Cc2cccnc2)CCN1C[C@@H](O)C[C@@H](Cc1ccccc1)C(=O)N[C@H]1c2ccccc2C[C@H]1O [indinavir] | expected levels of antiviral activity |  |  |  |  |  |  |  |  |  |  |  | 
Nc1nc(O)c2ncn(COC(CO)CO)c2n1 [Ganciclovir] |  | expected levels of antiviral activity |  |  |  |  |  |  |  |  |  |  | 
His-Ser-Asp-Gly-Ile-Phe-Thr-Asp-Ser-Tyr-Ser-Arg-Tyr-Arg-Lys-Gln-Met-Ala-Val-Lys-Lys-Tyr-Leu-Ala-Ala-Val-Leu-Gly-Lys-Arg-Tyr-Lys-Gln-Arg-Val-Lys-Asn-Lys-NH2 (HSDGIFTDSYSRYRKQMAVKKYLAAVLGKRYKQRVKNK-NH2) [peptide 1] |  |  | 48.0% | 6 | 36 | 0.0 % of control | 120.1 % of control | 63.0 % of control | 94.0 % of control | 60.8 % of control | did not induce | 23.3% | 
Ac-Met-Trp-Asp-Phe-Asp-Asp-Leu-Asn-Phe-Thr-Gly-Met-Pro-Pro-Ala-Asp-Glu-Asp-Tyr-Ser-Pro-NH2 (Ac-MWDFDDLNFTGMPPADEDYSP-NH2) [peptide 2] |  |  | no effect |  | 32 | 63.0 % of control | 136.3 % of control | 59.3 % of control | 90.3 % of control | 59.2 % of control | 19.65% | does not show any induction | 9
Cc1cn([C@H]2C[C@H](N=[N+]=[N-])[C@@H](CO)O2)c(=O)[nH]c1=O [AZT] | expected levels of antiviral activity |  |  |  |  |  |  |  |  |  |  |  | 
